The numbers were not newly measured in patent publication US20210196661A1, “METHOD FOR AMELIORATION OF INSULIN RESISTANCE” (priority 2019, published 2021), which cites them from elsewhere.

The conditions of series [1]: in vivo.
Series [2] deals with integrated stress response (ISR). The note with it: mice.

Turning to `N[C@@H](Cc1cc(I)c(Oc2cc(I)c(O)c(I)c2)c(I)c1)C(=O)O` [T4, L-thyroxine], the half life in series [1] is 120 to 170 h.
For the compound `O=C(COc1ccc(Cl)cc1)NC1CCC(NC(=O)COc2ccc(Cl)cc2)CC1` (stereo not shown) [ISM], in series [2], the age-related memory impairment entry is “rapidly reverses”, the “levels of ATF4” value is “decreases” and the “levels of phosphorylated eIF2a” value is “decreases”.
